One data set concerns the target T1, human beta1-adrenoceptor (Homo sapiens, UniProt P08588).
T1 construct: expressed in transfected cells; host or cells: CHO cells
The experiment in a line: 3H-CGP12177 whole-cell binding, beta1. Particulars: for Kd / Beta 1 Log KD: 3H-CGP 12177 whole cell binding, CHO cells expressing human beta1-adrenoceptor, logarithmic value; for Kd: read-out: Beta 1 Log KD (converted); for Beta 1-Beta 2 Log KD (selectivity): difference of Log KD beta1 and beta2, 1 = 10-fold, 2 = 100-fold, 3 = 1000-fold selectivity. The method, then: (§1) Selectivity of ligands for the three beta-adrenoceptors was assessed by whole-cell binding studies using ^3H-CGP12177 in CHO cells expressing the human beta1, beta2 or beta3-adrenoceptors respectively essentially as described by Baker (2005; Br. J Pharmacol: 144, 317-22) Values shown are KD values determined as described by Baker (2005). KD represents the concentration of compound required to occupy 50% of the receptors in cells or tissues.
(§2) The selectivity of a ligand is given by the ratio of beta-1 to beta-2 KD. Accordingly a difference of one in the logarithmic values thereof represents a 10-fold selectivity, a difference of 2 represents 100-fold selectivity and a difference of 3 represents 1000-fold selectivity etc.

For a further data set, the target named is T2, human beta2-adrenoceptor (Homo sapiens, UniProt P07550).
T2 construct: expressed in transfected cells; host or cells: CHO cells
Description: 3H-CGP12177 whole-cell binding, beta2. The following applies: 3H-CGP 12177 whole cell binding, CHO cells expressing human beta2-adrenoceptor, logarithmic value; for Kd: read-out: Beta 2 Log KD (converted). On the procedure: as §1, §2

Counter-ions that a name gives are not always drawn. A value given as a limit tells only on which side of the number the result lay.

T2 sequence (P07550 whole entry): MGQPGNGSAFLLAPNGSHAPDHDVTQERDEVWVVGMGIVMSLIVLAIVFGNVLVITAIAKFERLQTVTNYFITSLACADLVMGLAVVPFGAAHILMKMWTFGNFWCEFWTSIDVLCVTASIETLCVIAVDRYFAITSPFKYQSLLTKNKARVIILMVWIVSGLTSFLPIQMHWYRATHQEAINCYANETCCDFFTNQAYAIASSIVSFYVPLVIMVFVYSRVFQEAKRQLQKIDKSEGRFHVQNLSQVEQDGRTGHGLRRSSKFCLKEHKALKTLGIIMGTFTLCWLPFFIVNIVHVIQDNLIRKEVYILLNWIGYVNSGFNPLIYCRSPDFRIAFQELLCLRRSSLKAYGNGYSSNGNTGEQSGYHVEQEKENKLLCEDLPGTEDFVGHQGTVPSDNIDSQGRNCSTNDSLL
T1 sequence (P08588 whole entry): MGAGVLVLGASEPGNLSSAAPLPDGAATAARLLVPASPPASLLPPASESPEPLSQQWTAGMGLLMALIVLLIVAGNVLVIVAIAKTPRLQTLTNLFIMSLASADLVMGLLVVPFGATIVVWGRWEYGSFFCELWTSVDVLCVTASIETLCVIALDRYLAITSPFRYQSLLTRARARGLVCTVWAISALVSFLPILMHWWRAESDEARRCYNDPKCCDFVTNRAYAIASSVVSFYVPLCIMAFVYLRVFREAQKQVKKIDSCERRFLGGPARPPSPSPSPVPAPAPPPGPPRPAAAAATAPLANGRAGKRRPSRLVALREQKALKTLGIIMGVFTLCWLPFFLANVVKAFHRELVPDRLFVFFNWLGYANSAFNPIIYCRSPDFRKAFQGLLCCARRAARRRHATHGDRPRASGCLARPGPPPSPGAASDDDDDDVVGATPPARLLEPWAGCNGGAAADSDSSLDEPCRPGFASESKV

For the compound `NC(=O)c1ccc(OCCNC[C@H](O)COc2ccc(CCCN3CCC(F)(F)CC3)cc2)cc1` (as salt: hydrochloride) [Example 41, (S)-4-(2-(3-(4-(3-(4,4-difluoropiperidin-1-yl)propyl)phenoxy)-2-hydroxypropyl)amino)-ethoxy)benzamide dihydrochloride], the melting point lay in the range of 234 to 235 °C.

Consider `COc1ccc(OCCNCC(O)COc2ccc(OCCOC3CCCC3)cc2)cc1` (racemic) [Example 3], for which the results for the Kd on human beta1-adrenoceptor and on human beta2-adrenoceptor were 7.41 nM and 759 nM, respectively. In addition, the “Beta 1-Beta 2 Log KD (selectivity)” value at human beta1-adrenoceptor is listed as 2.01.

Consider `NC(=O)c1ccc(OCCNCC(O)COc2ccc(OCCOC3CCCC3)cc2)cc1` (stereo not shown) [Example 1], for which, on human beta1-adrenoceptor, the “Beta 1-Beta 2 Log KD (selectivity)” value came to 2.40.

In the case of `CN(C)C(=O)c1ccc(OCCNC[C@H](O)COc2ccc(OCCOC3CCCC3)cc2)cc1` [Example 6], the melting point lay in the range of 73 to 75 °C. In addition, at human beta1-adrenoceptor, the Kd is 11.5 nM and the “Beta 1-Beta 2 Log KD (selectivity)” value came to 1.96. In addition, the equilibrium dissociation constant (Kd) on human beta2-adrenoceptor is 1050 nM.

`NC(=O)c1ccc(OCCNC[C@H](O)COc2ccc(CCCOCC3CC3)cc2)cc1` [Example 8] registered a melting point of 132 to 135 °C. On human beta1-adrenoceptor, the dissociation constant Kd is 2.88 nM and the “Beta 1-Beta 2 Log KD (selectivity)” value is on record as 2.66. For the same compound, the Kd at human beta2-adrenoceptor is 1320 nM.

The compound `NC(=O)c1ccc(OCCNC[C@H](O)COc2ccc(CCCOC3CCCC3)cc2)cc1` [Example 9] showed a melting point of 120 to 122 °C. In addition, at human beta1-adrenoceptor, the equilibrium dissociation constant (Kd) is 0.912 nM and the “Beta 1-Beta 2 Log KD (selectivity)” value came to 2.59. The Kd on human beta2-adrenoceptor was 355 nM.

Compound `NC(=O)c1ccc(OCCNC[C@H](O)COc2ccc3c(c2)OC[C@@H](COCC2CC2)O3)cc1` [Example 11] returned a melting point of 136 to 138 °C. In addition, on human beta1-adrenoceptor, the Kd is 23.4 nM and the “Beta 1-Beta 2 Log KD (selectivity)” value was determined as 2.64. For the same compound, the Kd at human beta2-adrenoceptor was 10200 nM.

Turning to `O[C@@H](CNCCOc1ccc2ncccc2c1)COc1ccc(CCCOCC2CC2)cc1` [Example 12], the melting point is 128 to 130 °C. Also, on human beta1-adrenoceptor, the dissociation constant Kd was 0.832 nM and the “Beta 1-Beta 2 Log KD (selectivity)” value amounted to 2.22. Further, the dissociation constant Kd on human beta2-adrenoceptor was 138 nM.

Turning to `CC(=O)Nc1ccc(OCCNC[C@H](O)COc2ccc(CCCOCC3CC3)cc2)cc1` [Example 13], on human beta1-adrenoceptor, the “Beta 1 Log KD” value is given as −8.83 and the “Beta 1-Beta 2 Log KD (selectivity)” value turned out to be 2.3. For the same compound, the “Beta 2 Log KD” value at human beta2-adrenoceptor is −6.53.

For the compound `O[C@@H](CNCCOc1ccc2ncccc2c1)COc1ccc2c(c1)OC[C@@H](COCC1CC1)O2` [Example 14], at human beta1-adrenoceptor, the dissociation constant (Kd) was 4.17 nM and the “Beta 1-Beta 2 Log KD (selectivity)” value worked out at 2.48. For the same compound, the equilibrium dissociation constant (Kd) on human beta2-adrenoceptor was 1260 nM.

As to `CC(=O)Nc1ccc(OCCNC[C@H](O)COc2ccc3c(c2)OC[C@@H](COCC2CC2)O3)cc1` [Example 15], the melting point lay in the range of 123 to 125 °C. For the same compound, on human beta1-adrenoceptor, the Kd was 7.59 nM and the “Beta 1-Beta 2 Log KD (selectivity)” value is 2.76. Moreover, the Kd at human beta2-adrenoceptor is 4370 nM.

Take `NC(=O)c1ccc(OCCNC[C@H](O)COc2ccc3c(c2)OC[C@@H](COC2CCCC2)O3)cc1` [Example 16]: the melting point was in the range of 134 to 136 °C. In addition, at human beta1-adrenoceptor, the Kd is 6.17 nM and the “Beta 1-Beta 2 Log KD (selectivity)” value is 2.91. The equilibrium dissociation constant (Kd) at human beta2-adrenoceptor was 5010 nM.

For `O=C1NCc2cc(OCCNC[C@H](O)COc3ccc4c(c3)OC[C@@H](COCC3CC3)O4)ccc21` [Example 18], on human beta1-adrenoceptor, the Kd is 4.57 nM and the “Beta 1-Beta 2 Log KD (selectivity)” value was determined as 3.01. Further, the Kd on human beta2-adrenoceptor was 4680 nM.

Turning to `NC(=O)c1ccc(OCCNC[C@H](O)COc2ccc(CCOCC3CC3)cc2)cc1` [Example 20], at human beta1-adrenoceptor, the “Beta 1 Log KD” value is given as −8.99 and the “Beta 1-Beta 2 Log KD (selectivity)” value stood at 2.28. On human beta2-adrenoceptor, the “Beta 2 Log KD” value is listed as −6.71.

On to `O[C@@H](CNCCOc1ccc2nccnc2c1)COc1ccc(CCCOCC2CC2)cc1` [Example 21], for which, on human beta1-adrenoceptor, the Kd is 2.75 nM and the “Beta 1-Beta 2 Log KD (selectivity)” value is reported as 2.19. Moreover, the Kd on human beta2-adrenoceptor was 427 nM.

The compound `O=c1[nH]c2ccc(OCCNC[C@H](O)COc3ccc(CCCOCC4CC4)cc3)cc2[nH]1` [Example 22] came in with a melting point of 183 to 185 °C. Moreover, on human beta1-adrenoceptor, the equilibrium dissociation constant (Kd) is 8.32 nM and the “Beta 1-Beta 2 Log KD (selectivity)” value was found to be 2.23. Further, the Kd on human beta2-adrenoceptor is 1410 nM.

In the case of `O=C1NCc2cc(OCCNC[C@H](O)COc3ccc4c(c3)OC[C@@H](COc3ccc(F)cc3)O4)ccc21` [Example 25], at human beta1-adrenoceptor, the Kd was 0.794 nM and the “Beta 1-Beta 2 Log KD (selectivity)” value was 2.64. Also, the Kd at human beta2-adrenoceptor is 347 nM.

Consider `O=C1NCc2cc(OCCNC[C@H](O)COc3ccc4c(c3)OC[C@H](COc3ccc(F)cc3)O4)ccc21` [Example 26], for which the melting point fell in the range of 161 to 164 °C. Also, at human beta1-adrenoceptor, the dissociation constant Kd is 4.17 nM and the “Beta 1-Beta 2 Log KD (selectivity)” value was found to be 2.78. Besides, on human beta2-adrenoceptor, the Kd is 2510 nM.

For `NC(=O)c1ccc(OCCNC[C@H](O)COc2ccc3cc(COCC4CC4)ccc3c2)cc1` [Example 28], the melting point lay in the range of 148 to 150 °C. Besides, on human beta1-adrenoceptor, the dissociation constant (Kd) is 117 nM and the “Beta 1-Beta 2 Log KD (selectivity)” value was under 2.93. Besides, on human beta2-adrenoceptor, the Kd is over 100000 nM.

`O=C1NCc2cc(OCCNC[C@H](O)COc3ccc4cc(OCC5CC5)ccc4c3)ccc21` [Example 29] yielded a melting point of 194 to 196 °C. On human beta1-adrenoceptor, the Kd was 79.4 nM and the “Beta 1-Beta 2 Log KD (selectivity)” value is given as under 3.10. Moreover, the Kd at human beta2-adrenoceptor is over 100000 nM.

The compound `O=C1NCc2cc(OCCNC[C@H](O)COc3ccc4c(c3)OC[C@@H](COc3ccncc3)O4)ccc21` [Example 30] yielded a melting point of 192 to 194 °C. Moreover, on human beta1-adrenoceptor, the Kd was 57.5 nM and the “Beta 1-Beta 2 Log KD (selectivity)” value is listed as 3.10. The Kd on human beta2-adrenoceptor is 72400 nM.

On to `O=C1NCc2cc(OCCNC[C@H](O)COc3ccc4c(c3)OC[C@@H](COc3cccc(F)c3)O4)ccc21` [Example 33], for which the Kd on human beta1-adrenoceptor was 2.82 nM; on human beta2-adrenoceptor it was 2000 nM. The “Beta 1-Beta 2 Log KD (selectivity)” value on human beta1-adrenoceptor is on record as 2.85.

On to `O=C1NCc2cc(OCCNC[C@H](O)COc3ccc4c(c3)OC[C@@H](COc3ccc(OC(F)(F)F)cc3)O4)ccc21` [Example 34], for which the melting point was 188 to 189 °C. Also, at human beta1-adrenoceptor, the Kd is 3.39 nM and the “Beta 1-Beta 2 Log KD (selectivity)” value is 3.37. In addition, the Kd on human beta2-adrenoceptor is 7760 nM.

For the compound `O=C1NCc2cc(OCCNC[C@H](O)COc3ccc4c(c3)OC[C@@H](COc3ccccc3F)O4)ccc21` [Example 35], at human beta1-adrenoceptor, the “Beta 1 Log KD” value is −8.68 and the “Beta 1-Beta 2 Log KD (selectivity)” value amounted to 3.70. In addition, on human beta2-adrenoceptor, the “Beta 2 Log KD” value was −4.98.

With `COc1c(F)cc(OC[C@@H]2COc3cc(OC[C@@H](O)CNCCOc4ccc5c(c4)CNC5=O)ccc3O2)cc1F` [Example 37], the melting point lay in the range of 182 to 184 °C. On human beta1-adrenoceptor, the Kd was 2.69 nM and the “Beta 1-Beta 2 Log KD (selectivity)” value stood at 3.37. For the same compound, the dissociation constant (Kd) on human beta2-adrenoceptor is 6310 nM.

In the case of `O=C1NCc2cc(OCCNC[C@H](O)COc3ccc4c(c3)OC[C@@H](COc3c(F)cccc3F)O4)ccc21` [Example 38], at human beta1-adrenoceptor, the “Beta 1 Log KD” value is −8.54 and the “Beta 1-Beta 2 Log KD (selectivity)” value is 3.34. In addition, on human beta2-adrenoceptor, the “Beta 2 Log KD” value is −5.20.

Regarding `Cc1ccccc1OC[C@@H]1COc2cc(OC[C@@H](O)CNCCOc3ccc4c(c3)CNC4=O)ccc2O1` [Example 39], the melting point lay in the range of 146 to 148 °C. Moreover, at human beta1-adrenoceptor, the Kd was 1.07 nM and the “Beta 1-Beta 2 Log KD (selectivity)” value is on record as 2.91. The Kd on human beta2-adrenoceptor is 871 nM.

`COc1ccc(OCC2COc3cc(OCC(O)CNCCOc4ccc5c(c4)CNC5=O)ccc3O2)c(F)c1` (stereo not shown) [Example 40] gave a melting point of 145 to 147 °C. Besides, on human beta1-adrenoceptor, the equilibrium dissociation constant (Kd) is 3.24 nM and the “Beta 1-Beta 2 Log KD (selectivity)” value came out at 2.70. Further, the Kd at human beta2-adrenoceptor is 1620 nM.

For the compound `NC(=O)c1ccc(OCCNC[C@H](O)COc2ccc(CCCN3CCC(F)(F)CC3)cc2)cc1` [Example 41, (S)-4-(2-(3-(4-(3-(4,4-difluoropiperidin-1-yl)propyl)phenoxy)-2-hydroxypropyl)amino)-ethoxy)benzamide dihydrochloride], on human beta1-adrenoceptor, the equilibrium dissociation constant (Kd) is 1.82 nM and the “Beta 1-Beta 2 Log KD (selectivity)” value is recorded as 2.87. Further, at human beta2-adrenoceptor, the equilibrium dissociation constant (Kd) is 1350 nM.

Compound `O=C1NCc2cc(OCCNC[C@H](O)COc3ccc(CCCN4CCC(F)(F)CC4)cc3)ccc21` [Example 42] registered a melting point of 132 to 133 °C. Besides, on human beta1-adrenoceptor, the dissociation constant Kd is 1.95 nM and the “Beta 1-Beta 2 Log KD (selectivity)” value is listed as 2.32. On human beta2-adrenoceptor, the dissociation constant Kd is 407 nM.

With `O=C1NCc2cc(OCCNC[C@H](O)COc3ccc(CCCOC4CC4)cc3)ccc21` [Example 45], at human beta1-adrenoceptor, the “Beta 1 Log KD” value is on record as −9.17 and the “Beta 1-Beta 2 Log KD (selectivity)” value was determined as 2.65. Besides, the “Beta 2 Log KD” value on human beta2-adrenoceptor is listed as −6.52.

Turning to `NC(=O)c1ccc(OCCNC[C@H](O)COc2ccc(CCCOC3CC3)cc2)cc1` [Example 46], at human beta1-adrenoceptor, the “Beta 1 Log KD” value is recorded as −8.67 and the “Beta 1-Beta 2 Log KD (selectivity)” value is given as 2.57. Besides, on human beta2-adrenoceptor, the “Beta 2 Log KD” value is recorded as −6.10.

What is called melting point is the temperature, or range, at which the solid turns liquid. Broadly, the Kd is a measure of binding affinity in units of concentration.

Source of the values: patent publication US20140094493A1, “Novel Ether Linked Compounds and Improved Treatments for Cardiac and Cardiovascular Disease” (priority 2011, published 2014).
